The results in this text go back to patent US20100016360A1 (WYETH, priority 2008, published 2010).

Format in all cases: in vitro ADME
The target in series [1] is CYP2D6 (Homo sapiens, UniProt P10635). Put plainly: CYP2D6 inhibition.
Series [2] addresses CYP2C9 (Homo sapiens, UniProt P11712). Put plainly: CYP2C9 inhibition.
In series [3] the target is CYP3A4 (Homo sapiens, UniProt P08684). Put plainly: CYP3A4 inhibition.
CYP3A4, sequence (P08684 whole entry, species assumed): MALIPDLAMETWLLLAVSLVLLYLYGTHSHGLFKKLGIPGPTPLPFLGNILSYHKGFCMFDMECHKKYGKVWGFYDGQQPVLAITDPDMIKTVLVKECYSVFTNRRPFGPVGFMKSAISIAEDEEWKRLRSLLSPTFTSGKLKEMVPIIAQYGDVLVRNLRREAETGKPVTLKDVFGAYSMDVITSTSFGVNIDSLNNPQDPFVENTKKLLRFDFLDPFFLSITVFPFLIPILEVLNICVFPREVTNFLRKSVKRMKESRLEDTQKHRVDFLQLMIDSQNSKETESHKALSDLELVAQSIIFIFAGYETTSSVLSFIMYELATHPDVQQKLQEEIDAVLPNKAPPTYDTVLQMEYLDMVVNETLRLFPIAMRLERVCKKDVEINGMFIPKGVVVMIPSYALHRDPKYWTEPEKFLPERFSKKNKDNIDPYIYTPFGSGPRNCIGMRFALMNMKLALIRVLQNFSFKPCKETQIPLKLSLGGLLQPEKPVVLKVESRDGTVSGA

CYP2C9, sequence (P11712 whole entry, species assumed): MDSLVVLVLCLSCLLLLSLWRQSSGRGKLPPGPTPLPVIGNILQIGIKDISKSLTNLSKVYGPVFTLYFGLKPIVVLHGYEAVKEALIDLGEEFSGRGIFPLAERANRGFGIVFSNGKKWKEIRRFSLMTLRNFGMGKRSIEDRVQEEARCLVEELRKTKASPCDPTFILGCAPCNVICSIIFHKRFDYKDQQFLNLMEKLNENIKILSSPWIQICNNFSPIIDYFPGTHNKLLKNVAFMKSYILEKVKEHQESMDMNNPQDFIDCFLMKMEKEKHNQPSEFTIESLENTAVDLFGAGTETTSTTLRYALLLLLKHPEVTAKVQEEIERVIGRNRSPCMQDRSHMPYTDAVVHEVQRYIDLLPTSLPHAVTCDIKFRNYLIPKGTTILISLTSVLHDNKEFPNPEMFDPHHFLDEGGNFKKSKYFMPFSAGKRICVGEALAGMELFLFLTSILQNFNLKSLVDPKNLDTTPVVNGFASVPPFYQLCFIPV
CYP2D6, sequence (P10635 whole entry, species assumed): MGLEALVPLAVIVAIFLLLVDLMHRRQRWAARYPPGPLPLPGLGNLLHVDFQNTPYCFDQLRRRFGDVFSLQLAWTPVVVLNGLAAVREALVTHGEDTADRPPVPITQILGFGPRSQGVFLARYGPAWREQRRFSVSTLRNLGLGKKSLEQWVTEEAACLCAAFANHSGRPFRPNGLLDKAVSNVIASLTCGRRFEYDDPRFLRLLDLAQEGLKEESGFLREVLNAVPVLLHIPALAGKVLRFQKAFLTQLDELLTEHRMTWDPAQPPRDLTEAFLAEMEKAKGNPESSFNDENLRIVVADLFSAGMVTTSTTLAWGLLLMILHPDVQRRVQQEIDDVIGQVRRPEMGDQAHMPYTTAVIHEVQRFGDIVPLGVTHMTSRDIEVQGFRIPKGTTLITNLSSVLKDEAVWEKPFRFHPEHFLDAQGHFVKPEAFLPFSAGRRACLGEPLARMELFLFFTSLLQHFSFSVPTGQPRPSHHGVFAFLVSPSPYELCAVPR

As to `COc1ncccc1-c1ccc(NC(=O)NCCCCN2CCCCC2)cc1`, in series [1], the CYP2D6 % inhibition was 8%. The CYP2C9 % inhibition in series [2] is listed as −36%. Besides, in series [3], the CYP3A4 % inhibition is listed as −21%.
